# Results published in US12187706B2, “NLRP3 modulators” (INNATE TUMOR IMMUNITY, INC., priority 2019, dated 2025).
# Biological target: T1, human TLR8 (Homo sapiens, UniProt Q9NR97)
# T1 construct: host or cells: human HEK-Blue cells with NF-kB/AP1-inducible SEAP reporter
# T1 sequence (Q9NR97 27-1041): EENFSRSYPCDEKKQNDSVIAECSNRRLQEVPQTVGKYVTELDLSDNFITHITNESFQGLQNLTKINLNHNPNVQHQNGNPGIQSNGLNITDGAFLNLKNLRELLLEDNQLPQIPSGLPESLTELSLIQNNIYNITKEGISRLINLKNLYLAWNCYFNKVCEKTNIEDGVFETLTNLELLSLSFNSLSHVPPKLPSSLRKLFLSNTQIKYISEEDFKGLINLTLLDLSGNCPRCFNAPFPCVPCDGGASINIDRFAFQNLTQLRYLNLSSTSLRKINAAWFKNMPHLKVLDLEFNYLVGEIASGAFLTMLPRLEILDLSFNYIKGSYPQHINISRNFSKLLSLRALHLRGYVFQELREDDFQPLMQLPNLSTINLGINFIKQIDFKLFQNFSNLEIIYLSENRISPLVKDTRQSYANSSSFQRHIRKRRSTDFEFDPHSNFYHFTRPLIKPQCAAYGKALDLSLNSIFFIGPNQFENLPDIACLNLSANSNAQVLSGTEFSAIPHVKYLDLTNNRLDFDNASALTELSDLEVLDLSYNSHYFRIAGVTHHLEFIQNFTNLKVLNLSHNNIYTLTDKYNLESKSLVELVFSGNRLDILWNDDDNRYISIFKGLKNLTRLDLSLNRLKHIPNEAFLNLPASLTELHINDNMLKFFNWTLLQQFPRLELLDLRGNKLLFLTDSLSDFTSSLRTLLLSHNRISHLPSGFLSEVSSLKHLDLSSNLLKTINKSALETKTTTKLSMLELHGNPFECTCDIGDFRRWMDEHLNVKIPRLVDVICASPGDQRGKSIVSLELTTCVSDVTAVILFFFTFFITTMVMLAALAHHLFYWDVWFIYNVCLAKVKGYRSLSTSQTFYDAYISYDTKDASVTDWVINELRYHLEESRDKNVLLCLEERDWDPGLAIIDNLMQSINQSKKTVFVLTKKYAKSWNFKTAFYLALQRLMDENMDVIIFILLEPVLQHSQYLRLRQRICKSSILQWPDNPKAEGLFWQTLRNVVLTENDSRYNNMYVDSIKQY
# Test: In vitro human TLR8 reporter assay (HEK-Blue, NF-kB/AP1-inducible SEAP)
# Type: cell-based
# Conditions: at 50 μM
# Experimental: In Vitro Human TLR7 and TLR8 Binding Reporter Assays Logarithmically-growing human HEK-Blue cells co-expressing a TLR7 or TLR8 gene and a NF-kB/AP1-inducible SEAP (secreted embryonic alkaline phosphatase; […] Cellular SEAP production is measured using an Envision plate reader instrument thirty minutes after adding freshly-made Quanti-Blue reagent (prepared by following manufacturer instructions; Invivogen, San Diego, CA) to the HEK-Blue TLR Nf-kB-SEAP cell reactions. All EC50 values (half-maximal effective concentration) are determined using proprietary data analysis software.
compound,measurement,value
"Nc1nc(OCCO)c2ccc(-c3ccn[nH]3)cc2n1 [Example 4, 2-((2-amino-7-(1H-pyrazol-3-yl)quinazolin-4-yl)oxy)ethan-1-ol]",TLR8 agonist activity,< 50%
